A word on the IC50: it is the concentration at which inhibition is half-maximal. As a reminder, the pIC50 is the negative decadic logarithm of the IC50, by convention in mol/L.

pIC50: −log10 of the molar value. Where two headings read alike, the source gives them in different places.

For test [1], the target named is Mcl-1 protein (Homo sapiens, UniProt Q07820). Kind of test: Inhibition of Mcl-1 by the fluorescence polarisation technique. The following applies: for IC50: fluorescence polarisation test, Fluorescein labelled ligand 1 nM, Mcl-1 protein 5 nM, ~2 hours at r.t., read-out: IC50 (M) Mcl-1 FP. Type of test: binding. Here is the method:
The relative binding potency of each compound was determined via Fluorescence Polarisation (FP). The method utilised a Fluorescein labelled ligand (Fluorescein-βAla-Ahx-A-REIGAQLRRMADDLNAQY-OH; mw 2,765) which binds to the Mcl-1 protein (such that Mcl-1 corresponds to the UniProtKB® primary accession number: Q07820) leading to an increased anisotropy measured in milli-polarisation (mP) units using a reader. The addition of a compound which binds competitively to the same site as the ligand will result in a greater proportion of unbound ligand in the system indicated by a decrease in mP units.
An 11 point serial dilution of each compound was prepared in DMSO and 2 μl transferred into flat bottomed, low binding, 384-well plate (final DMSO concentration 5%). 38 μl of buffer (10 mM 4-(2-hydroxyethyl)-1-piperazineethanesulfonic acid [HEPES], 150 mM NaCl, 0.05% Tween 20, pH 7.4), containing the Fluorescein labelled ligand (final concentration 1 nM) and Mcl-1 protein (final concentration 5 nM) was then added.
Assay plates were incubated ˜2 hours at r.t. before FP was measured on a Biomek Synergy2 reader (Ex. 528 nm, Em. 640 nm, Cut off 510 nm) and mP units calculated. The binding of increasing doses of test compound was expressed as a percentage reduction in mP compared to a window established between ‘5% DMSO only’ and ‘100% inhibition’ controls. 11-point dose response curves were plotted with XL-Fit software using a 4-Parameter Logistic Model (Sigmoidal Dose-Response Model) and the inhibitory concentrations that gave a 50% reduction in mP (IC50) were determined.

In test [2] the test system is H929 cells. Description: In vitro cytotoxicity (MTT) on H929 multiple myeloma tumour line. The following applies: Microculture Tetrazolium Assay. The class given is cell-based. Here is the method:
The cytotoxicity studies were carried out on the H929 multiple myeloma tumour line.
The cells are distributed onto microplates and exposed to the test compounds for 48 hours.
The cell viability is then quantified by a colorimetric assay, the Microculture Tetrazolium Assay (Cancer Res., 1987, 47, 939-942).

[3] abbreviates: Homo sapiens, NCI-H929, exposed 48 hours.

Chain of Mcl-1 protein (Q07820 whole entry): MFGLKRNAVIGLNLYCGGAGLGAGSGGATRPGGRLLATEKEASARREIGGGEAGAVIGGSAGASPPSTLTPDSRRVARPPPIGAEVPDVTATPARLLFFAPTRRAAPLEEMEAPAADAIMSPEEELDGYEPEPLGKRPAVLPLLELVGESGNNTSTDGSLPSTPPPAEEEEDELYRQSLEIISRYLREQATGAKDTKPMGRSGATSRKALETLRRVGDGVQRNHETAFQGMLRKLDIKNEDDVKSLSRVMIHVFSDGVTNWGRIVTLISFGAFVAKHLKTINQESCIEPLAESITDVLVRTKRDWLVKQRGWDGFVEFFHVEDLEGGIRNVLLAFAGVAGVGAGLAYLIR

Take `COC1OC(COc2ccc(-c3nccc(COc4ccccc4CC(Oc4ncnc5sc(-c6ccc(F)cc6)c(-c6ccc(OCCN7CCN(C)CC7)c(Cl)c6C)c45)C(=O)O)n3)cc2)C(O)C(O)C1O` [Example 18, methyl 6-O-{4-[4-({2-[(2R)-2-carboxy-2-{[(5Sa)-5-{3-chloro-2-methyl-4-[2-(4-methylpiperazin-1-yl)ethoxy]phenyl}-6-(4-flurophenyl)thieno[2,3-d]pyrimidin-4-yl]oxy}ethyl]phenoxy}methyl)pyrimidin-2-yl]phenyl}-α-D-mannopyranoside]: the IC50 in test [1] turned out to be 4.1e-09 M; in test [2] (exposed 48 hours), 13.9 nM.

Consider `COC1OC(COc2ccc(-c3nccc(COc4ccccc4CC(Oc4ncnc5sc(-c6ccc(F)cc6)c(-c6ccc(OCCN7CCN(C)CC7)c(Cl)c6C)c45)C(=O)O)n3)cc2)C(OC)C(OC)C1OC` [Example 19, methyl 6-O-{4-[4-({2-[(2R)-2-carboxy-2-{[(5Sa)-5-{3-chloro-2-methyl-4-[2-(4-methylpiperazin-1-yl)ethoxy]phenyl}-6-(4-fluorophenyl)thieno[2,3-d]pyrimidin-4-yl]oxy}ethyl]phenoxy}methyl)pyrimidin-2-yl]phenyl}-2,3,4-tri-O-methyl-α-D-mannopyranoside], for which the IC50 in test [1] was determined as 4.95e-09 M; in test [2] (setting [3]), 2.47 nM.

Take `Cc1c(-c2c(-c3ccc(F)cc3)sc3ncnc(OC(Cc4ccccc4OCc4ccnc(-c5ccc(OCC6OC(O)C(O)C(O)C6O)cc5)n4)C(=O)O)c23)ccc(OCCN2CCN(C)CC2)c1Cl` [Example 20, 6-O-{4-[4-({2-[(2R)-2-carboxy-2-{[(5Sa)-5-{3-chloro-2-methyl-4-[2-(4-methylpiperazin-1-yl)ethoxy]phenyl}-6-(4-fluorophenyl)thieno[2,3-d]pyrimidin-4-yl]oxy}ethyl]phenoxy}methyl)pyrimidin-2-yl]phenyl}-D-mannopyranose]: the figures for the IC50 in test [1] and in test [2] (setting [3]) were 4.35e-09 M and 56.8 nM, respectively.

Take `Cc1c(-c2c(-c3ccc(F)cc3)sc3ncnc(O[C@H](Cc4ccccc4OCc4ccnc(-c5ccccc5OC[C@@H](O)[C@@H](O)[C@H](O)[C@H](O)C(=O)O)n4)C(=O)O)c23)ccc(OCCN2CCN(C)CC2)c1Cl` [Example 21]: the IC50 is 4.85e-09 M in test [1] and above 150 nM in test [2] (exposed 48 hours).

Take `Cc1c(-c2c(-c3ccc(F)cc3)sc3ncnc(OC(Cc4ccccc4OCc4ccnc(-c5ccc(COC6(C)OC7OC(CO)C(O)C(O)C7O6)cc5)n4)C(=O)O)c23)ccc(OCCN2CCN(C)CC2)c1Cl` [Example 22, 1,2-O-[(1R)-1-({4-[4-({2-[(2R)-2-carboxy-2-{[(5Sa)-5-{3-chloro-2-methyl-4-[2-(4-methylpiperazin-1-yl)ethoxy]phenyl}-6-(4-fluorophenyl)thieno[2,3-d]pyrimidin-4-yl]oxy}ethyl]phenoxy}methyl)pyrimidin-2-yl]benzyl}oxy)ethylidene]-β-D-mannopyranose]: the IC50 in test [1] was determined as 5.5e-09 M; in test [2] (setting [3]) it was 5.97 nM.

Consider `Cc1c(-c2c(-c3ccc(F)cc3)sc3ncnc(OC(Cc4ccccc4OCc4ccnc(-c5ccc(COC6OC(CO)C(O)C(O)C6O)cc5)n4)C(=O)O)c23)ccc(OCCN2CCN(C)CC2)c1Cl` [Example 23, (2R)-2-{[(5Sa)-5-{3-chloro-2-methyl-4-[2-(4-methylpiperazin-1-yl)ethoxy]phenyl}-6-(4-flurophenyl)thieno[2,3-d]pyrimidin-4-yl]oxy}-3-{2-[(2-{4-[(α-D-mannopyranosyloxy)methyl]phenyl}pyrimidin-4-yl)methoxy]phenyl}propanoic acid], for which the results for the IC50 in test [1] and in test [2] (exposed 48 hours) were 2.7e-09 M and 39.7 nM, respectively.

`Cc1c(-c2c(-c3ccc(F)cc3)sc3ncnc(OC(Cc4ccccc4OCc4ccnc(-c5ccc(CCO)cc5)n4)C(=O)O)c23)ccc(OCCN2CCN(C)CC2)c1Cl` [Example 24, (2R)-2-{[(5Sa)-5-{3-chloro-methyl-4-[2-(4methylpiperazin-1-yl)ethoxy]phenyl}-6-(4-fluorophenyl)thieno[2,3-d]pyrimidin-4-yl]oxy}-3-[2-({2-[4-(2-hydroxyethyl)phenyl]pyrimidin-4-yl}methoxy)phenyl]propanoic acid]: the concentration for half-maximal inhibition (IC50) is 3.15e-09 M in test [1] and 2.55 nM in test [2] (setting [3]).

As to `Cc1c(-c2c(-c3ccc(F)cc3)sc3ncnc(OC(Cc4ccccc4OCc4ccnc(-c5ccccc5OCC(O)CO)n4)C(=O)O)c23)ccc(OCCN2CCN(C)CC2)c1Cl` [Example 25, (2R)-2-{[(5Sa)-5-{3-chloro-2-methyl-4-[2-(4-methylpiperazin-1-yl)ethoxy]phenyl}-6-(4-fluorophenyl)thieno[2,3-d]pyrimidin-4-yl]oxy}-3-[2-({2-[2-(2,3-dihydroxypropoxy)phenyl]pyrimidin-4-}methoxy)phenyl]propanoic acid], the IC50 in test [1] turned out to be 3.45e-09 M; in test [2] (setting [3]), 10 nM.

With `Cc1c(-c2c(-c3ccc(F)cc3)sc3ncnc(OC(Cc4ccccc4OCc4ccnc(-c5ccccc5OCCO)n4)C(=O)O)c23)ccc(OCCN2CCN(C)CC2)c1Cl` [Example 26, (2R)-2-{[(5Sa)-5-{3-chloro-2-methyl-4-[2-(4methylpiperazin-1-yl)ethoxy]phenyl}-6-(4-fluorophenyl)thieno[2,3-d]pyrimidin-4-yl]oxy}-3-[2-({2-[2-(2-hydroxyethoxy)phenyl]pyrimidin-4-yl}methoxy)phenyl]propanoic acid], the IC50 in test [1] amounted to 3.45e-09 M; in test [2] (setting [3]), 1.72 nM.

`Cc1c(-c2c(-c3ccc(F)cc3)sc3ncnc(OC(Cc4ccccc4OCc4ccnc(-c5ccccc5COCC(O)CO)n4)C(=O)O)c23)ccc(OCCN2CCN(C)CC2)c1Cl` [Example 27, (2R)-2-{[(5Sa)-5-{3-chloro-2-methyl-4-[2-(4-methylpiperazin-1-yl)ethoxy]phenyl}-6-(4-fluorophenyl)thieno[2,3-d]pyrimidin-4-yl]oxy}-3-{2-[(2-{2-[(2,3-dihydroxypropoxy)methyl]phenyl}pyrimidin-4-yl)methoxy]phenyl}propanoic acid]: the 50% inhibitory concentration (IC50) in test [1] worked out at 2.2e-09 M; in test [2] (setting [3]), 13.9 nM.

Regarding `Cc1c(-c2c(-c3ccc(F)cc3)sc3ncnc(OC(Cc4ccccc4OCc4ccnc(-c5cccc(OP(=O)(O)O)c5)n4)C(=O)O)c23)ccc(OCCN2CCN(C)CC2)c1Cl` [Example 28, (2R)-2-{[(5Sa)-5-{3-chloro-2-methyl-4-[2-(4-methylpiperazin-1-yl)ethoxy]phenyl}-6-(4-fluorophenyl)thieno[2,3-d]pyrimidin-4-yl]oxy}-3-[2-({2-[3-(phosphonooxy)phenyl]pyrimidin-4-yl}methoxy)phenyl]propanoic acid], in test [1], the negative-log IC50 (pIC50) was 8.38. Besides, the IC50 in test [2] (setting [3]) was 48.4 nM.

As for `Cc1c(-c2c(-c3ccc(F)cc3)sc3ncnc(OC(Cc4ccccc4OCc4ccnc(-c5ccc(OP(=O)(O)O)cc5)n4)C(=O)O)c23)ccc(OCCN2CCN(C)CC2)c1Cl` [Example 29, 4-[4-({2-[(2R)-2-carboxy-2-{[(5Sa)-5-{3-chloro-2-methyl-4-[2-(4-methylpiperazin-1-yl)ethoxy]phenyl}-6-(4-fluorophenyl)thieno[2,3-d]pyrimidin-4-yl]oxy}ethyl]phenoxy}methyl)pyrimidin-2-yl]phenyl phosphate], the pIC50 in test [1] was 8.34. In addition, the midpoint of inhibition in test [2] (setting [3]), the IC50, lay at 22.7 nM.

As to `Cc1c(-c2c(-c3ccc(F)cc3)sc3ncnc(OC(Cc4ccccc4OCc4ccnc(-c5cccc(OCCO)c5)n4)C(=O)O)c23)ccc(OCCN2CCN(C)CC2)c1Cl` [Example 30, (2R)-2-{[(5Sa)-5-{3-chloro-2-methyl-4-[2-(4-methylpiperazin-1-yl)ethoxy]phenyl}-6-(4-fluorophenyl)thieno[2,3-d]pyrimidin-4-yl]oxy}-3-[2-({2-[3-(2-hydroxyethoxy)phenyl]pyrimidin-4-yl-}methoxy)phenyl]propanoic acid], the IC50 was found to be 4.5e-09 M in test [1] and 3.6 nM in test [2] (setting [3]).

As to `COCCOCCOc1ccc(-c2nccc(COc3ccccc3CC(Oc3ncnc4sc(-c5ccc(F)cc5)c(-c5ccc(OCCN6CCN(C)CC6)c(Cl)c5C)c34)C(=O)O)n2)cc1` [Example 31, (2R)-2-{[(5Sa)-5-{3-chloro-2-methyl-4-[2-(4-methylpiperazin-1-yl)ethoxy]phenyl}-6-(4-fluorophenyl)thieno[2,3-d]pyrimidin-4-yl]oxy}-3-{2-[(2-{4-[2-(2-methoxyethoxy)ethoxy]phenyl}pyrimidin-4-yl)methoxy]phenyl}propanoic acid], the concentration for half-maximal inhibition (IC50) worked out at 3.85e-09 M in test [1] and 1.68 nM in test [2] (setting [3]).

Turning to `Cc1c(-c2c(-c3ccc(F)cc3)sc3ncnc(OC(Cc4ccccc4OCc4ccnc(-c5ccc(OCCOCCO)cc5)n4)C(=O)O)c23)ccc(OCCN2CCN(C)CC2)c1Cl` [Example 32, (2R)-2-{[(5Sa)-5-{3-chloro-2-methyl-4-[2-(4-methylpiperazin-1-yl)ethoxy]phenyl}-6-(4-fluorophenl)thieno[2,3d]-pyrimidin-4-yl]oxy}-3-{2-[(2-{4-[2-(2-hydroxyethoxy)ethoxy]phenyl}pyrimidin-4-yl)methoxy]phenyl}propanoic acid], the IC50 in test [1] turned out to be 1.53e-08 M; in test [2] (setting [3]) it was 1.68 nM.

The record behind these values is patent US10322131B2, “Hydroxyacid derivatives, a process for their preparation and pharmaceutical compositions containing them” (LES LABORATOIRES SERVIER, priority 2015, dated 2019).
